Laboratory results: article PMC10856454, “Discovery of Novel Antitumor Small-Molecule Agent with Dual Action of CDK2/p-RB and MDM2/p53” (Molecules, 2024)

Key:
CDK4 = biological target: T1, CDK4 (Homo sapiens, UniProt P11802); assay: Kinase antagonist activity assay (TR-FRET), CDK4; assay type: biochemical
T1 construct: purchased Thermo Fisher Scientific
Experimental: The compounds were solubilized with DMSO (Solarbio Life Sciences, Beijing, China), and 11 concentrations were serially diluted at 3-fold; 100 nL of compound was added to 384-well plates, 5 μL of 2 × enzyme mixture (Thermo Fisher Scientific, Waltham, MA, USA) was added, and 5 μL of buffer was added instead of the complete inhibition control wells. Then, 1000 rpm centrifugation was performed for 30 s followed by a 15 min incubation at 23 °C. Next, 5 μL of 2 × MLight-MBP peptide (PerkinElmer, Waltham, MA, USA) was added to each well, with 1000 rpm centrifugation for 30 s and incubation at 23 °C for 90 min. At the end of the incubation, the reaction was terminated with buffer containing 15 mM EDTA and 2 nM Eu-anti-P-MBP antibody (PerkinElmer, Waltham, MA, USA), centrifuged at 1000 rpm for 1 min, and incubated at 23 °C for 60 min; the plates were read on a Perkin Elmer Envision ([…]).

OVCAR3 cells [1] = assay: Colony formation, OVCAR3; assay type: cell-based; conditions: 14 days
Experimental: Cells were inoculated in six-well plates at 1000 cells per well, and III-13 was added in a dose-dependent manner after 24 h. Cells were stained with Crystal Violet Staining Solution (Beyotime, Shanghai, China) at 14 days after incubation, and the cell colonies were counted using Image J.

HCT116 cells = assay: Cell proliferation assay (Celltiter-Glo), HCT116; assay type: cell-based; conditions: Homo sapiens, HCT-116, 72 h; HCT116 (overexpression of CCNE1), three days
Experimental: Celltiter-Glo Luminescent Cell Viability Assay (Promega, Madison, WI, USA) was used to detect cell viability according to the manufacturer’s instructions. This assay is a homogeneous method of determining the number of viable cells in a culture based on quantitation of the ATP present, an indicator of metabolically active cells. Cells were digested and paved in white-bottomed 96-well plates with 1000 cells/100 μL cell suspension solution; then, different concentrations of compounds were added the next day. TOV-21G and HCT116 were placed in the incubator for three days and OVCAR3 for five days. Then, 100 μL Celltiter-Glo solution was added and mixed for 5 min; the luminous intensity of each well was detected with a spectrophotometer (BioTek, Winooski, VT, USA). The experiment was repeated three times to calculate the cell survival rate.

[2] = tested on: MDM2 mRNA in OVCAR3 cells; assay: q-PCR of MDM2 mRNA after III-13 treatment; assay type: cell-based, human; conditions: q-PCR after 12 h of treatment
Text: RNA was reverse transcribed with the HiScript Q RT SuperMix for qPCR (Vazyme, Nanjing, China), and quantitative real-time PCR (qPCR) was applied using SYBR Green qPCR Mix (SparkJade, Jinan, China) on the ABI Prism 7500 Fast Real-Time PCR System (Applied Biosystems, Carlsbad, CA, USA) following the manufacturer’s protocols. The comparative CT method (ΔΔCt) was used to calculate gene expression differences, with GAPDH as the reference gene. The following primers were used (human): • ZNF311 (sense, 5′-3′): […] • ZNF311 (antisense, 5′-3′): […] • TBX15 (sense, 5′-3′): […] • TBX15 ([…], 5′-3′): […] • ZNF784 (sense, 5′-3′): […] • ZNF784 (antisense, 5′-3′): […] • SIX3 (sense, 5′-3′): […] • SIX3 (antisense, 5′-3′): […] • KLLN (sense, 5′-3′): […] • KLLN (antisense, 5′-3′): […] • P2RY1 (sense, 5′-3′): […] • P2RY1 (antisense, 5′-3′): […] • MSH4 (sense, 5′-3′): […] • MSH4 (antisense, 5′-3′): […] • STAR (sense, 5′-3′): […] • STAR (antisense, 5′-3′): […] • SUMO4 (sense, 5′-3′): […] • SUMO4 (antisense, 5′-3′): […] • ZC3H12D (sense, 5′-3′): […] • ZC3H12D (antisense, 5′-3′): […] • CCNE1 (sense, 5′-3′): […] • CCNE1 (antisense, 5′-3′): […] • MDM2 (sense, 5′-3′): […] • MDM2 (antisense, 5′-3′): […] • GAPDH (sense, 5′-3′): […] • GAPDH (antisense, 5′-3′): […]

OVCAR3 cells [3] = assay: Cell cycle detection by flow cytometry, OVCAR3; assay type: cell-based; conditions: 24 h
Experimental: Cells were plated at 300,000 cells overnight in six-well plates. III-13 was added in a dose-dependent fashion and then cells were incubated for 24 h. The cells were then fixed with 75% ethanol overnight at 4 °C. The cells were centrifuged, and ethanol was removed. The cells were washed twice with 1 × PBS following staining with DAPI (4′, 6′ diamino-2-phenylindole) and analyzed using Guava easyCyte HT (Merck KGaA, Darmstadt, Germany) with a blue filter. Experiments were performed in triplicate.

[4] = Liver microsomal stability, human; assay type: in vitro ADME; conditions: Human liver microsomes
Experimental: Compounds were incubated with mouse, rat, and human liver microsomal samples and NADPH at 37 °C for 5, 10, 20, 30, or 60 min. The reaction was terminated with a cold acetonitrile solution containing tolbutamide. Compound retention was determined by LC-MS/MS. The retention times, chromatographic acquisition, and chromatographic integration of compounds and positive control substances were analyzed using Analyst (AB Sciex, Framingham, MA, USA).

[5] = Pharmacokinetics study in rats; assay type: in vivo
Experimental: The pharmacokinetics study was created as described. […] Approximately 200 μL of whole blood was collected into heparin-coated tubes at 0.083, 0.25, 0.5, 1, 2, 3, 4, 6, 8, 12, and 24 h after dosing. Plasma was collected immediately by centrifugation (8000× g, 5 min, room temperature). Blood was placed in a heparinized Eppendorf™ tube. Plasma was centrifuged, and the concentration of compounds in the sample was determined by LCMS/MS after pre-treatment. Drug-concentration data were processed in a […] using WinNonlin™ 6.3 (Pharsight, Mountain View, CA, USA).

[6] = both sexes, rat, plasma, iv, 2 mg/kg i.v.
[7] = both sexes, rat, plasma, iv, 2 mg/kg, 2 mg/kg i.v.
[8] = both sexes, rat, plasma, po, 5 mg/kg i.g.
[9] = both sexes, rat, plasma, po, 5 mg/kg, 5 mg/kg i.g.

T1 sequence (P11802 whole entry): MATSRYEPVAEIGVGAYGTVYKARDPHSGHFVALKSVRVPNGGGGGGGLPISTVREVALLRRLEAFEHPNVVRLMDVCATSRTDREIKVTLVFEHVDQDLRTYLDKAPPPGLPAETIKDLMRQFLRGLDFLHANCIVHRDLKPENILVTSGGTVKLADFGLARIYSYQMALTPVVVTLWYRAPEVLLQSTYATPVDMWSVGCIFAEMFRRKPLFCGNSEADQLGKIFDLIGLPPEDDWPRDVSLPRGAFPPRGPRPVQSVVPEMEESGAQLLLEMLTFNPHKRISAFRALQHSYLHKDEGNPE
T1 sequence (P24385 whole entry partner): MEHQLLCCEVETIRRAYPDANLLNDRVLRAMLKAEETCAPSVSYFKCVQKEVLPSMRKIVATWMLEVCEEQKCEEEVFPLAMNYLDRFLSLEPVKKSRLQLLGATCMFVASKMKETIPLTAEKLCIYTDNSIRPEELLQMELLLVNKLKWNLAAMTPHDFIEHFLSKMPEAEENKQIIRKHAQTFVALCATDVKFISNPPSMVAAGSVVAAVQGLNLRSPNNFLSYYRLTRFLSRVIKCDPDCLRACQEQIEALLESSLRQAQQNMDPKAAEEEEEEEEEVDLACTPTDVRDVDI

## CC1(C)CCN1C(=O)O[C@@H]1CC[C@H](c2cc(NC(=O)Cc3ccc(N4CCCC4=O)cc3)n[nH]2)C1 [III-13]
CDK4
  IC50: 6.24 µM
  IC90: 23.1 µM
OVCAR3 cells [1]
  number of colonies: significant reduction
HCT116 cells
  IC50: 0.0609 µM
  IC90: 0.235 µM
[2]
  MDM2 mRNA expression: significantly inhibited
OVCAR3 cells [3]
  cell cycle arrest: arrested HCT116 and OVCAR3 cells in the G0/G1 phase
[4]
  CLint scaled: 59.9 mL/min/kg
[4]; 60 min
  Remaining (T = 60 min): 15.4%
[4]; NADPH, 37 °C
  half-life: 21.9 min
[5]; 2 mg/kg i.v.
  CL/F: 41.2 mL/min/kg
  Vz/F: 1.3 ± 0.374 L/kg
[5]; 2 mg/kg i.v., 2 mg/kg
  AUClast: 2.052 ± 0.337 µM·h
  T1/2: 22.2 ± 7.8 min
[5]; 5 mg/kg i.g., 5 mg/kg
  AUClast: 0.293 ± 0.0646 µM·h
  T1/2: 50.4 ± 7.2 min
[5]; [6]
  Cmax: 5500 ± 2310 nM
  MRT last: 27 ± 15 min
[5]; [7]
  AUC(0-t): ~2.05 µM·h
  half-life: ~22.2 min
[5]; both sexes, rat, plasma, oral, 5 mg/kg, 5 mg/kg i.g. vs 2 mg/kg i.v., read-out: F (oral bioavailability)
  bioavailability: ~3.57%
[5]; [8]
  Cmax: 389 ± 87.9 nM
  MRT last: 51 ± 6 min
[5]; [9]
  AUC(0-t): ~0.293 µM·h
  Tmax: ~15 min
  half-life: ~50.4 min
